Reference: ChEMBL document CHEMBL3352719 (Bioorg Med Chem, 2014)

How the values were obtained:
cells = details: Influenza A virus, MDCK, 48 h
[1] = Cytotoxicity against human 293T cells after 48 hrs by CellTiter96 assay; assay type: cell-based, HEK-293T
[2] = Cytotoxicity against MDCK cells after 48 hrs by CellTiter96 assay; assay type: cell-based, Canis lupus familiaris; details: dog

Row | Compound | EC50 (cells) | CC50 at 48 h [1] | CC50 at 48 h [2]
1 | CCC(CC)O[C@@H]1C=C(C(=O)NO)C[C@H](N)[C@H]1NC(C)=O | 359 nM | – | –
2 | CCC(CC)O[C@@H]1C=C(C(=O)NOC)C[C@H](N)[C@H]1NC(C)=O | 127 nM | – | –
3 | CCC(CC)O[C@@H]1C=C(C(=O)NOCc2ccccc2)C[C@H](N)[C@H]1NC(C)=O | 72.4 nM | – | –
4 | CCC(CC)O[C@@H]1C=C(C(=O)NOCCCc2cc3ccccc3[nH]2)C[C@H](N)[C@H]1NC(C)=O | 60.1 nM | – | –
5 | CCC(CC)O[C@@H]1C=C(C(=O)NOC)C[C@H](NC(=N)N)[C@H]1NC(C)=O | 71.7 nM | > 100000 nM | > 100000 nM
6 | CCC(CC)O[C@@H]1C=C(C(=O)NOCc2ccccc2)C[C@H](NC(=N)N)[C@H]1NC(C)=O | 23.8 nM | – | –
7 | CCC(CC)O[C@@H]1C=C(C(=O)NOCCCc2cc3ccccc3[nH]2)C[C@H](NC(=N)N)[C@H]1NC(C)=O | 90.7 nM | > 100000 nM | > 100000 nM
8 | CCC(CC)O[C@@H]1C=C(C(=O)NS(C)(=O)=O)C[C@H](N)[C@H]1NC(C)=O | 401 nM | – | –
9 | CCC(CC)O[C@@H]1C=C(C(=O)NS(=O)(=O)C(F)(F)F)C[C@H](N)[C@H]1NC(C)=O | 2220 nM | – | –
10 | CCCCS(=O)(=O)NC(=O)C1=C[C@@H](OC(CC)CC)[C@H](NC(C)=O)[C@@H](N)C1 | 1980 nM | – | –
11 | CCC(CC)O[C@@H]1C=C(C(=O)NS(=O)(=O)c2ccccc2)C[C@H](N)[C@H]1NC(C)=O | 7490 nM | – | –
12 | CCC(CC)O[C@@H]1C=C(C(=O)NS(C)(=O)=O)C[C@H](NC(=N)N)[C@H]1NC(C)=O | 59.1 nM | > 100000 nM | > 100000 nM
13 | CCC(CC)O[C@@H]1C=C(C(=O)NS(=O)(=O)C(F)(F)F)C[C@H](NC(=N)N)[C@H]1NC(C)=O | 484 nM | – | –
14 | CCCCS(=O)(=O)NC(=O)C1=C[C@@H](OC(CC)CC)[C@H](NC(C)=O)[C@@H](NC(=N)N)C1 | 261 nM | – | –
15 | CCC(CC)O[C@@H]1C=C(C(=O)NS(=O)(=O)c2ccccc2)C[C@H](NC(=N)N)[C@H]1NC(C)=O | 593 nM | – | –
16 | CCC(CC)O[C@@H]1C=C(C(=O)O)C[C@H](N)[C@H]1NC(C)=O [OSELTAMIVIR CARBOXYLATE] | 28.2 nM | – | –
